Molecular target: human TYK2 (JH2domain-pseudokinase) (Homo sapiens (Human), UniProt P29597)
Assay: TYK2 JH2 Domain Binding Assay (KINOMEscan)
Experimental: Binding constants for compounds of the present invention against the JH2 domain were determined by the following protocol for a KINOMEscan® assay (DiscoveRx). A fusion protein of a partial length construct of human TYK2 (JH2domain-pseudokinase) (amino acids G556 to D888 based on reference sequence NP_003322.3) and the DNA binding domain of NFkB was expressed in transiently transfected HEK293 cells. From these HEK 293 cells, extracts were prepared in M-PER extraction buffer (Pierce) in the presence of Protease Inhibitor Cocktail Complete (Roche) and Phosphatase Inhibitor Cocktail Set II (Merck) per manufacturers' instructions. The TYK2 (JH2domain-pseudokinase) fusion protein was labeled with a chimeric double-stranded DNA tag containing the NFkB binding site (5′-[…]-3′) fused to an amplicon for qPCR readout, which was added directly to the expression extract (the final concentration of DNA-tag in the binding reaction is 0.1 nM).
The liganded beads were blocked with excess biotin and washed with blocking buffer (SeaBlock (Pierce), 1% BSA, 0.05% Tween 20, 1 mM DTT) to remove unbound ligand and to reduce nonspecific binding.
Extracts were used directly in binding assays without any enzyme purification steps at a ≥10,000-fold overall stock dilution (final DNA-tagged enzyme concentration <0.1 nM). Extracts were loaded with DNA-tag and diluted into the binding reaction in a two step process. First extracts were diluted 1:100 in 1× binding buffer (PBS/0.05% Tween 20/10 mM DTT/0.1% BSA/2 μg/ml sonicated salmon sperm DNA) containing 10 nM DNA-tag. This dilution was allowed to equilibrate at room temperature for 15 minutes and then subsequently diluted 1:100 in 1× binding buffer. […] Kds were determined using an 11-point 3-fold compound dilution series with three DMSO control points. […] The compounds were then diluted directly into the assays such that the final concentration of DMSO was 0.9%. All reactions performed in polypropylene 384-well plates. Each was a final volume of 0.02 mL. Assays were incubated with shaking for 1 hour at room temperature. Then the beads were pelleted and washed with wash buffer (1×PBS, 0.05% Tween 20) to remove displaced kinase and test compound. […] The qPCR protocol consisted of a 10 minute hot start at 95° C., followed by 35 cycles of 95° C. for 15 seconds, 60° C. for 1 minute.
Kds were determined using an 11-point 3-fold compound dilution series with three DMSO control points. […] The compounds were then diluted directly into the assays such that the final concentration of DMSO was 0.9%. The Kds were determined using a compound top concentration of 30,000 nM. Kd measurements were performed in duplicate.
Binding constants (Kds) were calculated with a standard dose-response curve using the Hill equation: […]
The Hill Slope was set to −1.

Sequence of human TYK2 (JH2domain-pseudokinase) (P29597 556-888): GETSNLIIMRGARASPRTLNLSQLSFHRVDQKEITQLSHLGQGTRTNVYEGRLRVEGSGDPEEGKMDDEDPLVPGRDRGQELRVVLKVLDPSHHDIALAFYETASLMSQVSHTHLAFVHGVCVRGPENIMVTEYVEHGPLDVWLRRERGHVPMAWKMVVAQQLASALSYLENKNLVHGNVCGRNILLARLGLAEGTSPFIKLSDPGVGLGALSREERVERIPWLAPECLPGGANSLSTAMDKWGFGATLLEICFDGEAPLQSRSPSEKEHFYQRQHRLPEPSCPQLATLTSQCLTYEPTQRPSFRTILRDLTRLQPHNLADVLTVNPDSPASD

Compound	Kd
CNc1cc(Nc2cccn(-c3nc(C)co3)c2=O)nc2c(C(=O)NC(C)(C)C#N)cnn12 [I-1260]	0.2 to 1 nM
CNc1cc(Nc2cccn3ccnc23)nc2c(C(=O)N[C@@H]3COC[C@@H]3O)cnn12 [I-1261]	0.2 to 1 nM
CNc1cc(Nc2cccn3ccnc23)nc2c(C(=O)N[C@H]3COC[C@H]3O)cnn12 [I-1262]	1 to 10 nM
CNc1cc(Nc2cccn(C(C)C)c2=O)nc2c(C(=O)N[C@H]3CC[C@@H](O)C3)cnn12 [I-1265]	1 to 10 nM
CNc1cc(Nc2cccn(C(C)C)c2=O)nc2c(C(=O)N[C@@H]3CC[C@H](O)C3)cnn12 [I-1266]	< 0.2 nM
CNc1cc(-c2cn([C@@H]3CCCOC3)c3ncccc23)nc2c(C(=O)N[C@@H]3CC[C@H]3OC)cnn12 [I-1267]	< 0.2 nM
CNc1cc(-c2cn([C@@H]3CCCOC3)c3ncccc23)nc2c(C(=O)N[C@H]3CC[C@@H]3OC)cnn12 [I-1268]	> 10 nM
CNc1cc(-c2cn(C3CCOCC3)c3ncccc23)nc2c(C(=O)N[C@H]3CCCC[C@]3(C)O)cnn12 [I-1273]	> 10 nM
CNc1cc(Nc2cccn(-c3nn(C)cc3F)c2=O)nc2c(C(=O)NC3CC3)cnn12 [I-1275]	< 0.2 nM
CNc1cc(Nc2cccn(C(C)C)c2=O)nc2c(C(=O)N[C@@H]3CCCC[C@@]3(C)O)cnn12 [I-1276]	0.2 to 1 nM
CNc1cc(Nc2cccn(C(C)C)c2=O)nc2c(C(=O)N[C@H]3CCCC[C@]3(C)O)cnn12 [I-1277]	< 0.2 nM
CNc1cc(-c2cn(C3CC3)c3ncccc23)nc2c(C(=O)N[C@@H]3CCC[C@@]3(C)O)cnn12 [I-1280]	< 0.2 nM
CNc1cc(-c2cn(C3CC3)c3ncccc23)nc2c(C(=O)N[C@H]3CCC[C@]3(C)O)cnn12 [I-1281]	0.2 to 1 nM
CNc1cc(-c2cn([C@H]3CCCOC3)c3ncccc23)nc2c(C(=O)N[C@@H]3CC[C@H]3OC)cnn12 [I-1282]	1 to 10 nM
CNc1cc(Nc2cccn(-c3ccccn3)c2=O)nc2c(C(=O)N[C@H]3C[C@@H]3OC)cnn12 [I-1287]	< 0.2 nM
CNc1cc(Nc2cccn(-c3cccnc3)c2=O)nc2c(C(=O)N[C@@H]3CCC[C@@H](OC)C3)cnn12 [I-1288]	< 0.2 nM
CNc1cc(Nc2cccn(-c3ccc(C)nc3)c2=O)nc2c(C(=O)N[C@H]3CCC[C@H](OC)C3)cnn12 [I-1289]	1 to 10 nM
CNc1cc(Nc2cccn(C3CCOCC3)c2=O)nc2c(C(=O)N[C@@H]3CCC[C@@H](O)C3)cnn12 [I-1290]	> 10 nM
CCO[C@@H]1CC[C@H]1NC(=O)c1cnn2c(NC)cc(Nc3cccn(-c4ccccn4)c3=O)nc12 [I-1294]	< 0.2 nM

Compound	Kd
CNc1cc(-c2cn(CCCO)c3ncc(F)cc23)nc2c(C(=O)N[C@H]3CC[C@@H]3OC)cnn12 [I-1298]	> 10 nM
CNc1cc(-c2cn(CCCO)c3ncccc23)nc2c(C(=O)N[C@H]3CC[C@@H]3OC)cnn12 [I-1300]	1 to 10 nM
CNc1cc(Nc2cccn(C(C)C)c2=O)nc2c(C(=O)N[C@@H]3COC[C@@H]3O)cnn12 [I-1301]	0.2 to 1 nM
CNc1cc(Nc2cccn(C(C)C)c2=O)nc2c(C(=O)N[C@H]3COC[C@H]3O)cnn12 [I-1302]	< 0.2 nM
CNc1cc(Nc2cccn(-c3cccc(F)c3)c2=O)nc2c(C(=O)N[C@@H]3COC[C@@H]3O)cnn12 [I-1303]	1 to 10 nM
CNc1cc(Nc2cccn(-c3cccc(F)c3)c2=O)nc2c(C(=O)N[C@H]3COC[C@H]3O)cnn12 [I-1304]	0.2 to 1 nM
CNc1cc(-c2cn(C3CCOCC3)c3ncccc23)nc2c(C(=O)N[C@@H]3COC[C@@H]3O)cnn12 [I-1307]	< 0.2 nM
CNc1cc(-c2cn(C3CCOCC3)c3ncccc23)nc2c(C(=O)N[C@H]3COC[C@H]3O)cnn12 [I-1308]	> 10 nM
CNc1cc(Nc2cccn3ccnc23)nc2c(C(=O)N[C@H]3COC[C@H]3O)cnn12 [I-1313]	> 10 nM
CNc1cc(Nc2cccn3ccnc23)nc2c(C(=O)N[C@H]3CCC[C@]3(C)O)cnn12 [I-1316]	1 to 10 nM
CNC(=O)c1occc1Nc1cc(NC)n2ncc(C(=O)N[C@@H]3CC[C@H]3OC)c2n1 [I-1322]	< 0.2 nM
CNc1cc(Nc2cc3cccnc3n2C2CC2)nc2c(C(=O)N[C@@H]3CC[C@H]3OC)cnn12 [I-1324]	< 0.2 nM
CNc1cc(-c2cn(C(C)C)c3ncccc23)nc2c(C(=O)N[C@@H]3CC[C@]3(C)O)cnn12 [I-1326]	< 0.2 nM
CNc1cc(-c2cn(C(C)C)c3ncccc23)nc2c(C(=O)N[C@H]3CC[C@@]3(C)O)cnn12 [I-1327]	< 0.2 nM
CNc1cc(-c2cn(C3CCOCC3)c3ncccc23)nc2c(C(=O)N[C@H]3CC[C@@H]3OC)cnn12 [I-1329]	> 10 nM
CNc1cc(-c2cn(C3CC3)c3ncccc23)nc2c(C(=O)N[C@H]3CCC[C@]3(C)O)cnn12 [I-1335]	< 0.2 nM
CNc1cc(-c2cn(C3CCOCC3)c3ncccc23)nc2c(C(=O)N[C@H]3CCC[C@]3(C)O)cnn12 [I-1336]	1 to 10 nM
CNc1cc(Nc2cccn(C(C)C)c2=O)nc2c(C(=O)N[C@@H]3CCC[C@@](C)(O)C3)cnn12 [I-1337]	< 0.2 nM

Continued, values first:

Kd	Compound
< 0.2 nM	CNc1cc(Nc2cccn(C3CCOCC3)c2=O)nc2c(C(=O)N[C@H]3CC[C@@H](O)C3)cnn12 [I-1263]
1 to 10 nM	CNc1cc(Nc2cccn(C3CCOCC3)c2=O)nc2c(C(=O)N[C@@H]3CC[C@H](O)C3)cnn12 [I-1264]
0.2 to 1 nM	CNc1cc(Nc2cccn([C@@H]3CCCOC3)c2=O)nc2c(C(=O)N[C@@H]3C[C@H]3OC)cnn12 [I-1269]
1 to 10 nM	CNc1cc(Nc2cccn([C@@H]3CCCOC3)c2=O)nc2c(C(=O)N[C@H]3C[C@@H]3OC)cnn12 [I-1270]
< 0.2 nM	CNc1cc(Nc2cccn([C@H]3C[C@@H]3OC)c2=O)nc2c(C(=O)NC3CC3)cnn12 [I-1271]
1 to 10 nM	CNc1cc(Nc2cccn([C@H]3C[C@@H]3OC)c2=O)nc2c(C(=O)N[C@@H]3C[C@@H]3F)cnn12 [I-1272]
0.2 to 1 nM	CNc1cc(Nc2cccn([C@H]3C[C@@H]3F)c2=O)nc2c(C(=O)N[C@H]3CC[C@@H]3O)cnn12 [I-1278]
< 0.2 nM	CNc1cc(Nc2cccn([C@H]3C[C@@H]3F)c2=O)nc2c(C(=O)N[C@@H]3CC[C@H]3O)cnn12 [I-1279]
0.2 to 1 nM	CNc1cc(Nc2cccn([C@H]3CC[C@H]3O)c2=O)nc2c(C(=O)N[C@@H]3C[C@@H]3F)cnn12 [I-1284]
1 to 10 nM	CNc1cc(Nc2cccn([C@H]3CC[C@@H](OC)CC3)c2=O)nc2c(C(=O)N[C@H]3CC[C@@H]3O)cnn12 [I-1291]
< 0.2 nM	CNc1cc(Nc2cccn([C@H]3CC[C@@H](OC)CC3)c2=O)nc2c(C(=O)N[C@H]3CC[C@H]3O)cnn12 [I-1292]
0.2 to 1 nM	CNc1cc(Nc2cccn(C3CCOCC3)c2=O)nc2c(C(=O)N[C@@H]3CCC[C@@H](OC)C3)cnn12 [I-1297]
0.2 to 1 nM	CNc1cc(Nc2cccn(C3CC(F)(F)C3)c2=O)nc2c(C(=O)N[C@@H]3CC[C@@H]3O)cnn12 [I-1305]
1 to 10 nM	CNc1cc(Nc2cccn(C3CC(F)(F)C3)c2=O)nc2c(C(=O)N[C@H]3CC[C@H]3O)cnn12 [I-1306]
< 0.2 nM	CNc1cc(Nc2cccn([C@@H]3CCC[C@@H](OC)C3)c2=O)nc2c(C(=O)N[C@@H]3CC[C@H]3OC)cnn12 [I-1330]
1 to 10 nM	CNc1cc(Nc2cccn([C@@H]3CCN(CCF)C3)c2=O)nc2c(C(=O)N[C@H]3CC[C@@H]3OC)cnn12 [I-1332]
0.2 to 1 nM	CNc1cc(Nc2cccn([C@@H]3CCCC[C@@H]3O)c2=O)nc2c(C(=O)N[C@H]3CC[C@@H]3OC)cnn12 [I-1338]
0.2 to 1 nM	CNc1cc(Nc2cccn([C@@H]3CCCC[C@@H]3O)c2=O)nc2c(C(=O)N[C@@H]3CC[C@H]3OC)cnn12 [I-1339]
< 0.2 nM	CNc1cc(Nc2cccn3cnnc23)nc2c(C(=O)N[C@@H]3CC[C@H]3OC)cnn12 [I-1342]
0.2 to 1 nM	CNc1cc(Nc2cccn([C@H]3CC[C@H]3O)c2=O)nc2c(C(=O)N[C@@H]3CC[C@H]3OC)cnn12 [I-1344]
< 0.2 nM	CNc1cc(Nc2cccn([C@H]3CC[C@H]3O)c2=O)nc2c(C(=O)N[C@H]3CC[C@@H]3OC)cnn12 [I-1345]
< 0.2 nM	CNc1cc(Nc2cccn([C@@H]3CCCN(CCC#N)C3)c2=O)nc2c(C(=O)NC3CC3)cnn12 [I-1346, (R)-5-((1-(1-(2-cyanoethyl)piperidin-3-yl)-2-oxo-1,2-dihydropyridin-3-yl)amino)-N-cyclopropyl-7-(methylamino)pyrazolo[1,5-a]pyrimidine-3-carboxamide]

Source: patent publication US10508120B2, “TYK2 inhibitors and uses thereof” (Nimbus Lakshmi, Inc., priority 2017, dated 2019)
